The text below walks through data of US7745477B2, “Heteroaryl and benzyl amide compounds” (Hoffman-La Roche Inc., priority 2006, dated 2010).

Structures are written as SMILES.

As usually defined, the IC50 is the midpoint of a concentration-inhibition curve.

The target in the experiment is T1, cholesteryl ester transfer protein (CETP) (Homo sapiens, UniProt P11597).
T1 construct: the source of CETP was human lipoprotein-deprived serum (LPDS); from tissue; host or cells: human lipoprotein-deprived serum (LPDS)
T1 sequence (P11597 18-493): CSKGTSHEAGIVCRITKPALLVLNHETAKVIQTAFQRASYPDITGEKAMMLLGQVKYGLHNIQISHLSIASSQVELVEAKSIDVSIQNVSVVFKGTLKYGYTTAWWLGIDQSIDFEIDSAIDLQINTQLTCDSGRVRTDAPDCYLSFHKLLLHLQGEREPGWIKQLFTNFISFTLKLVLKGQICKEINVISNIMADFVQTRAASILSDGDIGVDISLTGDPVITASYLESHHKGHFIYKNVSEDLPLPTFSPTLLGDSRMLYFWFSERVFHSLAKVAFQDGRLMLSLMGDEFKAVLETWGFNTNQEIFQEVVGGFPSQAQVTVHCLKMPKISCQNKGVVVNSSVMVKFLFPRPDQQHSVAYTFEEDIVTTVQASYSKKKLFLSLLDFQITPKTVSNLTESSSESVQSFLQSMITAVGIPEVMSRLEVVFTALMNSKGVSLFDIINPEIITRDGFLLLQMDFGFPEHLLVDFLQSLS
Put plainly: CETP activity SPA assay in the presence of plasma (source of CETP: human lipoprotein-deprived serum, LPDS). Format: biochemical. The following applies: CETP from human lipoprotein-deprived serum (LPDS); transfer of radiolabeled cholesteryl ester from HDL donor to biotin-labeled LDL acceptor particles. On the procedure:
Activity of CETP inhibitors was determined using a buffer assay system. Partially purified CETP transferred radiolabeled cholesteryl ester from HDL donor particles to biotin-labeled LDL acceptor particles. The reaction was stopped by addition of streptavidin-coupled scintillation proximity assay (SPA) beads. These beads captured the biotinylated acceptor particles and transferred radioactivity was measured. The assay system was purchased and performed according to manufacturer's recommendations (Amersham Biosciences). Inhibitory activity of compounds was determined as percentage of positive control activity containing CETP together with donor and acceptor particles. Serial dilution of compounds was performed in order to determine the IC50 values.
Activity of the compounds was subsequently measured in the presence of plasma using the same assay as described above except that the source of CETP was human lipoprotein-deprived serum (LPDS). Inhibitory activity of compounds was determined as percentage of positive control activity containing all the assay components except compound. Serial dilution of compounds was performed in order to determine the IC50 values.
With `CC(C)(C)c1ccc(CN(CCc2ccc(Cl)c(Cl)c2)C(=O)c2cnccc2Cl)cc1` [Compound B3, N-(4-tert-Butyl-benzyl)-4-chloro-N-[2-(3,4-dichloro-phenyl)-ethyl]-nicotinamide], the IC50 was found to be 66.8 µM.

Regarding `CCC(C)(C)c1ccc(CN(CCc2ccc(Cl)cc2)C(=O)c2cc(Cl)cc(Cl)c2)cc1` [Compound B108, 3,5-Dichloro-N-[2-(4-chloro-phenyl)-ethyl]-N-[4-(1,1-dimethyl-propyl)-benzyl]-benzamide], the IC50 came to 0.409 µM. On to `O=C(c1cc(Cl)cc(Cl)c1)N(CCc1ccc(Cl)cc1)Cc1ccc(C(F)(C(F)(F)F)C(F)(F)F)cc1` [Compound B104, 3,5-Dichloro-N-[2-(4-chloro-phenyl)-ethyl]-N-[4-(1,2,2,2-tetrafluoro-1-trifluoromethyl-ethyl)-benzyl]-benzamide], for which the IC50 was 1.25 µM.
